Test results from patent US20230074252A1, “DOSAGES AND METHODS FOR TREATING PULMONARY ARTERIAL HYPERTENSION WITH RODATRISTAT” (Altavant Sciences GmbH, priority 2020, published 2023).
Read-outs that look alike come from different tables or passages of the source.

Assays:
[1] = target: MRP2 (Homo sapiens, UniProt Q92887); assay: Transporter inhibition, in vitro; assay type: in vitro ADME; conditions: for Potential for interaction? (transporter inhibitor), MRP2: predicted @ 600 mg BID
[2] = target: T1, OATP1B1 (Homo sapiens, UniProt Q9Y6L6); assay: In vitro transporter substrate assessment; assay type: in vitro ADME
T1 construct: expressed in transfected cells; host or cells: HEK293
T1 sequence (Q9Y6L6 1-691): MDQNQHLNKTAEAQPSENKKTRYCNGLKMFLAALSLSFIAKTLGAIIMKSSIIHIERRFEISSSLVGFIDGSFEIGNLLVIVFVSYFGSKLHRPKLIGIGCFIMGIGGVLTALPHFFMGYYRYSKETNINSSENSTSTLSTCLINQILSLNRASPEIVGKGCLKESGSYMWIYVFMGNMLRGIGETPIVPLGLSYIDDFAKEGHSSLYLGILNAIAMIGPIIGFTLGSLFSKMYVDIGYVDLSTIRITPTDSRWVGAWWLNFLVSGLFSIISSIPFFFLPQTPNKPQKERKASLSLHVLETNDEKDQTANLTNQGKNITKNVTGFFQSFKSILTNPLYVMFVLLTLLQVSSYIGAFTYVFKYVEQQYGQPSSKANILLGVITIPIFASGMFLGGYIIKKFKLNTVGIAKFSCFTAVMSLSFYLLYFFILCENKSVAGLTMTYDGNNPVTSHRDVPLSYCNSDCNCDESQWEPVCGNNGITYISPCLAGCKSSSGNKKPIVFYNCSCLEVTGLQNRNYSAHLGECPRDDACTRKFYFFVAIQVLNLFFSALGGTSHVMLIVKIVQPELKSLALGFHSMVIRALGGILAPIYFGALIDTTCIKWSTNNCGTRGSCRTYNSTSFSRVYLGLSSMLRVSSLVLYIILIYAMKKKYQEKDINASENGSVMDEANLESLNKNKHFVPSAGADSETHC

[3] = Plasma protein binding; assay type: in vitro ADME, human; conditions: for fraction unbound: human, plasma, read-out: Plasma protein binding (fraction bound) (converted)
Description: This analysis is typically based on non-protein bound drug levels in plasma. Values for plasma protein binding (fraction bound) of rodatristat ethyl and rodatristat were 0.995 and 0.991, respectively.
Calculation of Cmax, u, portal uses plasma Cmax, fraction of an oral dose absorbed (Fa) and measured unbound fraction in blood. For rodatristat, experimentally derived values were used for Fa determined in a rat 14C study (20%) and in vitro binding to human plasma (99.1%) and blood:plasma distribution (RB, 0.72). Walsky et al proposed a threshold where the ratio of Cmax, u, portal/Ki of <0.1 is associated with low risk. […] In the rat, the RE:R is ˜3-fold higher in portal blood compared to the periphery.

[4] = Clinical pharmacokinetics in healthy subjects (Studies RVT-1201-1001 and KAR5585-101); assay type: in vivo, human
Procedure: Clinical Study RVT-1201-1001 was a single and repeat dose study of RVT-1201 in healthy subjects to evaluate the pharmacokinetic profile of RVT-1201 and its active metabolite KAR5417. In Part 1 of this study, a single oral dose of 400 mg RVT-120 was administered as an oral powder in Regimen A and B, and as immediate release tablets in Regimen C, to 9 healthy male subjects. In addition, a single 1200 mg dose as immediate release tablets was administered in Regimen D.
Following oral administration in the fed state, RVT-1201 was well absorbed and peak plasma levels were achieved after a median time of 2.5 h. […] The planned clinical dose schedule of RVT-1201 in ELEVATE2 is up to 600 mg BID. […] The geometric mean apparent clearance was 900 L/h after oral administration in Regimen C of Clinical Study RVT-1201-1001. Elimination of RVT-1201 was rapid, and primarily facilitated by hydrolysis to KAR5417. Formation of KAR5417 was attributed to de-esterification of RVT-1201.
KAR5417 is rapidly formed after oral administration of RVT-1201.
Data from two clinical studies were used to verify the PBPK model (Clinical Study KAR5585-101 and Clinical Study RVT-1201-1001). Clinical Study KAR5585-101 was a randomized, double blind, placebo-controlled, Phase 1, first-in-human study to characterize the pharmacokinetics of single and multiple ascending doses of RVT-1201 in healthy subjects. RVT-1201 and KAR5417 plasma concentration data on Day 1, 7 and 14 of 400 mg BID administration in fed subjects were used to support verification of the PBPK model. In addition, multiple dose RVT-1201 and KAR5417 plasma concentration data on Day 1, 7 and 14 of 400 mg or 800 mg BID administration in fed subjects in Clinical Study RVT-1201-1001 were also used to support model verification.

[5] = target: T2, CYP1A2 (Homo sapiens, UniProt P05177); assay: FDA guidance DDI risk assessment, perpetrator potential; set-up: from tissue; host or cells: pooled human liver microsomes (n=200 donors); conditions: predicted @ 600 mg BID
T2 sequence (P05177 1-516): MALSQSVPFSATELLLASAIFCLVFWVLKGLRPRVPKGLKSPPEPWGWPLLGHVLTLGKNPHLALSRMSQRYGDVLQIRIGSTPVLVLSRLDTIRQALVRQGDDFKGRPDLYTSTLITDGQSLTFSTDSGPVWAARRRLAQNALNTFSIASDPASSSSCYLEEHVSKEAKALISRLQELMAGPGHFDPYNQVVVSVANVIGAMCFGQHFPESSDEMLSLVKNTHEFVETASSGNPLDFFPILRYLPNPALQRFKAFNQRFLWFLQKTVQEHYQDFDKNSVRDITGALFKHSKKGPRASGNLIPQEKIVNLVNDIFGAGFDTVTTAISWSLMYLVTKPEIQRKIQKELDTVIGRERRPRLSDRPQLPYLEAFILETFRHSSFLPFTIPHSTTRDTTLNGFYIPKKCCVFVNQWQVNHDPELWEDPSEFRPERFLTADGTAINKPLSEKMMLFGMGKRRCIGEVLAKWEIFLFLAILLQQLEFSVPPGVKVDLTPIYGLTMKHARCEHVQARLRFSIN
Procedure: The potential for rodatristat ethyl or rodatristat to be perpetrators of drug-drug interactions was assessed across in vitro CYP and transporter studies (Tables 1-4). […] This analysis was performed to assess the potential for clinically meaningful DDIs as recommended in FDA Draft Guidance: “In Vitro Metabolism- and Transporter-Mediated Drug-Drug Interaction Studies Guidance for Industry”; October 2017 (FDA, 2017).
R1 and R3 values using free (non-protein bound) drug levels were calculated based on plasma protein binding (fraction bound, fb) of rodatristat ethyl (0.995) and rodatristat (0.991). The FDA Guidance is set forth In Vitro Metabolism- and Transporter-Mediated Drug-Drug Interaction Studies Guidance for Industry (2017). […] Parameters for the prediction are set forth below in Tables 5 and 6.

Chain of MRP2 (Q92887 whole entry): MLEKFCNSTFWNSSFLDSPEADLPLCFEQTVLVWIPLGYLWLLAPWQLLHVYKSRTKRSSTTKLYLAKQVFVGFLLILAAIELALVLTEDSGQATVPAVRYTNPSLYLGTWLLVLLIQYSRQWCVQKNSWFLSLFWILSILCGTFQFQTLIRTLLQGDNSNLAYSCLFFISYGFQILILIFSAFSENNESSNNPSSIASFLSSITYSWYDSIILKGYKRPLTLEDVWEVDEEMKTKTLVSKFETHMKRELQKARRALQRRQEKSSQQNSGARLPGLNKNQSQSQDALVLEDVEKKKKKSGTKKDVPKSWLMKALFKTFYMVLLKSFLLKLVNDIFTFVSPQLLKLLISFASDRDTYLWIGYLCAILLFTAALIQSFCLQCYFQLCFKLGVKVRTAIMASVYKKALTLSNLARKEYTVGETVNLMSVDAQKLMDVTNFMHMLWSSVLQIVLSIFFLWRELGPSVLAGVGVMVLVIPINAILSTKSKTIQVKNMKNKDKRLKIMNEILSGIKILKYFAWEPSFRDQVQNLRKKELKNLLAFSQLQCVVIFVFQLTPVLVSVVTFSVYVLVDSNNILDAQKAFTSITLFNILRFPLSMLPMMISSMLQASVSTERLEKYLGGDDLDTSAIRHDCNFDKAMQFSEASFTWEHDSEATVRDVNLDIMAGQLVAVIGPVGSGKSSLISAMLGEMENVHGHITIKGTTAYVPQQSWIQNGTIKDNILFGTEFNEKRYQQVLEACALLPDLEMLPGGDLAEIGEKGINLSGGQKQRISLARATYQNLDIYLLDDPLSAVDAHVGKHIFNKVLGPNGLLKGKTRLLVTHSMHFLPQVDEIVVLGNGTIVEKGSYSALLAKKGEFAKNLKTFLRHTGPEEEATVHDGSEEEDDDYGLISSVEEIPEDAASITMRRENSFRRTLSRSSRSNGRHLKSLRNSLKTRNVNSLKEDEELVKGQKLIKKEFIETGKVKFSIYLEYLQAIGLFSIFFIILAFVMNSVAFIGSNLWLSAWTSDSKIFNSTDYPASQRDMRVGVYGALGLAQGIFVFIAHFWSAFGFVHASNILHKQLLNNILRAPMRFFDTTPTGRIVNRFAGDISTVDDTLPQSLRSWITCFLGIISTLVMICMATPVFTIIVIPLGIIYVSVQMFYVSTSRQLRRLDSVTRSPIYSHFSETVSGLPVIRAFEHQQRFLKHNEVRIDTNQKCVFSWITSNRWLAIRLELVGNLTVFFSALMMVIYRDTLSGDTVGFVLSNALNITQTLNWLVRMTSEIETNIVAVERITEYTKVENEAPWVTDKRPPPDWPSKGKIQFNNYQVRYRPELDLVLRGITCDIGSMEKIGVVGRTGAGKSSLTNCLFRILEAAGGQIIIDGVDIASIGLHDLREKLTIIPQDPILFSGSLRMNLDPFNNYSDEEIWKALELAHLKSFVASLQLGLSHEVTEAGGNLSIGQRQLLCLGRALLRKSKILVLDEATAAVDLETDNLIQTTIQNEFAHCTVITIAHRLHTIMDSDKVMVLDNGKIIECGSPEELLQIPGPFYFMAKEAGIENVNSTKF

Potential for interaction? (transporter inhibitor), MRP2 [1] | In vitro substrate? OATP1B1 [2] | fraction unbound [3] | half-life ([4]; human, plasma, oral, 400 mg BID dosing, read-out: Average geometric mean plasma terminal t1/2 (converted)) | Geometric mean apparent clearance ([4]; oral, Regimen C (400 mg single dose, fed)) | Median time to peak plasma levels ([4]; oral, fed state, healthy subjects) | Accumulation after multiple dosing ([4]; twice daily schedule, up to 600 mg BID, expected) | Potential for interaction (perpetrator), CYP1A2 [5] | inhibition at 30 µM ([1]; nominal 30 μM) | Accumulation by OATP1B1 uptake transporter ([2]; 3 μM) | In vitro binding to human plasma [3] | Cmax greater than the Cmax of RVT-1201 ([4]; Regimen C, 400 mg single dose of RVT-1201) | half-life ([4]; male, human, plasma, 400 mg, after oral RVT-1201, Regimen C, read-out: Geometric mean plasma terminal t1/2 (converted)) | Cmax ([4]; male, human, plasma, oral, Regimen C, 400 mg single dose of RVT-1201, read-out: Geometric mean Cmax) | Tmax ([4]; male, human, plasma, oral, Regimen C, 400 mg single dose of RVT-1201, read-out: Median Tmax) | SMILES
No | not a substrate and No | 0.005 | 5.2 h | 900 L/h | 2.5 h | < 1.5 fold | No |  |  |  |  |  |  |  | CCOC(=O)[C@@H]1CC2(CCN(c3cc(O[C@H](c4ccc(Cl)cc4-c4ccccc4)C(F)(F)F)nc(N)n3)CC2)CN1 [Rodatristat ethyl, (S)-ethyl 8-(2-amino-6-((R)-1-(5-chloro-[1,1′-biphenyl]-2-yl)-2,2,2-trifluoroethoxy)pyrimidin-4-yl)-2,8-diazaspiro[4.5]decane-3-carboxylate]
No^a | is an in vitro substrate and Yes | 0.009 |  |  |  |  | No | 25% | 2.22 fold | 99.1% | approximately 5 fold | 12.3 h | 517 ng/mL | 3.5 h | Nc1nc(O[C@H](c2ccc(Cl)cc2-c2ccccc2)C(F)(F)F)cc(N2CCC3(CC2)CN[C@H](C(=O)O)C3)n1 [Rodatristat, (S)-8-(2-amino-6-((R)-1-(5-chloro-[1,1′-biphenyl]-2-yl)-2,2,2-trifluoroeth-oxy)pyrimidin-4-yl)-2,8-diazaspiro[4.5]decane-3-carboxylic acid]
